Laboratory results: patent US12303541B2, “Erodium crassifolium L'Her plant extracts and uses thereof” (priority 2015, dated 2025)

Test system: IL-8
Test: IL-8 levels in TNF-α treated HaCaT cells (EE, fractions, pure compounds)
Type: cell-based, human
Details: for reduction of IL-8 levels by individual pure compounds: tested separately at the concentration present in comb-1, HaCaT
Description: After incubation, cell excitation was performed with recombinant human tumor necrosis factor-α (TNF-α, PeproTech, 300-01A, USA). Cultures in each well were treated with a final concentration of 50 ng/mL of TNFα and 50 μL plant extract. Three different controls were included in all experiments: (a) non-treated cells, with neither TNF-α nor plant extracts, (b) cells treated with TNF-α alone, (c) cells treated with TNF-α and the solvent (7% ethanol). The supernatant was collected, and the level of IL-8 was measured 16 h post-treatment using the commercial Human CXCL8/IL-8 DuoSet ELISA kit (R&D Systems, DY208-05, USA) according to the manufacturer's protocol. IL-8 is a common biomarker for inflammatory skin diseases. 16 h of TNF-α exposure induce IL-8 levels. Dexamethasone (Sigma-Aldrich, D4902, USA) was used as a positive control.

| Molecule | IL-8 levels (17.6 μg/mL) | IL-8 reduction activity (all examined concentrations of pure standard) | reduction of IL-8 levels by individual pure compounds | IL-8, % of TNF-α activated cells (100 μM, HaCaT) [%] | level of IL-8 (100 μM, TNF-α 50 ng/mL, 16 h, HaCaT) [pg/mL] |
| --- | --- | --- | --- | --- | --- |
| Oc1cc(O)c2c(c1)O[C@H](c1cc(O)c(O)c(O)c1)[C@H](O)C2 [EGC, (−)-Epigallocatechin] | led to increased IL-8 levels | None of the examined concentrations of pure standard EGC showed any significant IL-8 reduction activity | inactive for reduction of IL-8 levels | – | – |
| C[C@@H]1C[C@H]2[C@@H]3CCC4=CC(=O)C=C[C@]4(C)[C@@]3(F)[C@@H](O)C[C@]2(C)[C@@]1(O)C(=O)CO [dexamethasone, Dexamethasone] | – | – | – | 59.4 | 104.0 ± 3.0 |
| O=C(O)c1cc(O)c(O)c(O)c1 [gallic acid] | – | – | inactive for reduction of IL-8 levels | – | – |
| catechin | – | – | inactive for reduction of IL-8 levels | – | – |
